The nature of assay [1]: Luminescence-based cell-based high throughput dose response assay to identify activators of the DAF-12 from the parasite S. stercoralis (ssDAF-12). The assay is classed as functional.
Assay [2] concerns the target Oxysterols receptor LXR-beta (Homo sapiens, UniProt P55055). The experiment in a line: LXR agonists, Gal4 luciferase reporter, dose response, counter-screen for ssDAF-12 agonist project, cell-based, luminescence, HEK293, S. stercoralis campaign (AID 720737). As to conditions: read-out: IC50 (the source's name). Type of assay: functional.
Assay [3] addresses Glutathione-S-transferase (Schistosoma japonicum, UniProt Q26513). Nature of the assay: GST-antibody interaction or FRET quenching – biochemical, TR-FRET, artefact control for Vif-APOBEC3G degradation inhibitor project, dose response (AID 1117362). The assay is classed as functional.
Assay [4] is described as follows: YAP1 overexpression rescue of CTGF inhibition – DLD1 cells, RT-qPCR, cherry-pick, mechanism study for YAP1 pathway inhibitor project, dose response (AID 1053127). Type of assay: functional, cell-based. As to conditions: DLD-1.
Assay [5] can be described thus: rise of 4N DNA cells, HeLa – IC50, dose response (AID 1117351). The assay is classed as functional, cell-based.
A short description of assay [6]: cytotoxicity toward HCT116 cells – cell-based, CellTiter-Glo luminescence, IC50, dose response (AID 1117332). The assay is classed as functional. The note with it: HCT-116.
Assay [7] can be described thus: RKO cell viability reduction, dose response, CellTiter-Glo luminescence (AID 1117322). Type of assay: functional.
Assay [8] is described as follows: Reduced DLD-1 viability, concentration-response, CellTiter-Glo luminescence (AID 1117352). Type of assay: functional.
The nature of assay [9]: HCT116 cell viability decrease, GSK3B pretreatment – CellTiter-Glo, IC50, dose response (AID 1117339). The assay is classed as functional. The note with it: HCT-116.
Assay [10] in a line: SNU-C1 cell viability reduction, dose response, CellTiter-Glo luminescence (AID 1117323). Type of assay: functional, cell-based.
Assay [11] can be described thus: CellTiter-Glo luminescence survival assay, SW480 colon tumor line, concentration-response curve, half-maximal inhibitory concentration (AID 1117338). Type of assay: functional.
A short description of assay [12]: rise of 2N DNA cells, HeLa – IC50, dose response (AID 1117349). The assay is classed as functional, cell-based.
Assay [13] is described as follows: cytotoxicity toward Colo320 cells – cell-based, CellTiter-Glo luminescence, IC50, dose response (AID 1117334). As to conditions: COLO 320. Type of assay: functional.
The nature of assay [14]: Late stage assay provider results from the probe development effort to identify inhibitors of the Plasmodium falciparum M18 Aspartyl Aminopeptidase (M18AAP): radiolabel-based cell-based dose response assay to identify compounds that inhibit P. falciparum growth in RBCs, Set 2.. Type of assay: functional.
Assay [15] can be described thus: inhibitors of non-replicating M. tuberculosis, dose response, luciferase, dry powder (AID 651619). Type of assay: functional. As to conditions: Mycobacterium tuberculosis.
Assay [16] in a line: HeLa cell viability loss – plate reader, dry powder, cytotoxicity control, dose response (AID 651946). The assay is classed as functional, cell-based.
Assay [17] is described as follows: inhibitors of non-replicating M. tuberculosis, dose response, luciferase, dry powder (AID 651620). Type of assay: functional. As to conditions: Mycobacterium tuberculosis.
Assay [18] can be described thus: viability loss in CEM21 cells – cell-based, plate reader, dry powder, cytotoxicity control, dose response (AID 687026). The assay is classed as functional.
The nature of assay [19]: luciferase signal loss, tTA control fusion, HeLa F-luc tTA cells, dry powder, counter-screen for HIV Env fusion inhibitor project, dose response (AID 687021). The assay is classed as functional, cell-based.
The nature of assay [20]: inhibition of Env-driven cell fusion – HIV entry, plate reader, dry powder, dose response (AID 687023). Type of assay: functional, cell-based.
The target in another assay is Kallikrein-7 (Homo sapiens, UniProt P49862). Nature of the assay: Fluorescence Intensity-based biochemical primary high throughput dose response assay to identify activators of kallikrein-7 (K7) zymogen.

Structures are written as SMILES. Where “and” joins values, the source holds several entries; their conditions need not be identical. Equal values may be shown once. Calls of active or inactive are those of the source.

Kallikrein-7, sequence (P49862 whole entry): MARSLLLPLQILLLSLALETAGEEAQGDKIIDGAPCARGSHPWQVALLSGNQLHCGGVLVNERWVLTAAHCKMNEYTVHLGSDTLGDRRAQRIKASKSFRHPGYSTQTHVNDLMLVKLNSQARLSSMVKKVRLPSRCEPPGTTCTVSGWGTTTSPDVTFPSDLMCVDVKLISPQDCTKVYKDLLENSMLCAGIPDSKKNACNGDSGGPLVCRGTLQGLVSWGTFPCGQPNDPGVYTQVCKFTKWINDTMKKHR
Oxysterols receptor LXR-beta, sequence (P55055 whole entry, the tested form may be a part): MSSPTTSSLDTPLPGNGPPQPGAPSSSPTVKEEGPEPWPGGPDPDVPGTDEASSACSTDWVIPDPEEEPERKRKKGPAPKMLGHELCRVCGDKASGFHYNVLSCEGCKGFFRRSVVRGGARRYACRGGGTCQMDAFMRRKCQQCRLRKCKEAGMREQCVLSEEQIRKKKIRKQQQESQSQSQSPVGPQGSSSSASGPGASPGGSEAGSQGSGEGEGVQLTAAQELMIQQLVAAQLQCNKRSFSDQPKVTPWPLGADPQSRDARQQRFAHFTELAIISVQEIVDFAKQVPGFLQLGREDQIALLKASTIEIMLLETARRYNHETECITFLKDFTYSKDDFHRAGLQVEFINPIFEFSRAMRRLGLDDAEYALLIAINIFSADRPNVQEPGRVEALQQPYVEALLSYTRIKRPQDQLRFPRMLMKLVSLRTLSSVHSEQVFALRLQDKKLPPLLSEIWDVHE
Glutathione-S-transferase, sequence (Q26513 whole entry): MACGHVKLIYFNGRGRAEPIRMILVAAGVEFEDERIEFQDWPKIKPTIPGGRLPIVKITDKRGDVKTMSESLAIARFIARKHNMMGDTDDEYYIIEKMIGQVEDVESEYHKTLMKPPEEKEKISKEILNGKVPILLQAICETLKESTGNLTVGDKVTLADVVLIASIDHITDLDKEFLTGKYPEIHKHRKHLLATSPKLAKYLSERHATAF

Take `CCc1ccc(-c2csc3ncn(CC)c(=O)c23)cc1`: the IC50 in [1] is > 67.6 µM (inactive). In addition, the EC50 in [2] is > 67.6 µM (inactive).

As to `CC[n+]1ccc(C)c2cc(P(=O)(c3ccccc3)c3ccccc3)ccc21`, the half-maximal inhibitory concentration (IC50) in [3] was 9.73 µM (active).

As for `O=C(Nc1ccc(C(F)(F)F)cc1)Nc1ccc2c(c1)[C@H]1C[C@H](CC(=O)N3CCc4ccccc4C3)O[C@@H](CO)[C@H]1O2`, in [4], the AC50 was > 26 µM (inactive).

In the case of `O=C1C(I)=CC(=C(c2cc(I)c(O)c(I)c2)c2ccccc2C(=O)O)C=C1I` [IODOPHTHALEIN SODIUM], the IC50 in assay [5] was > 10 µM (inactive); in assay [6], 0.384 µM (active); in [7], 0.0373 µM (active); in [8], 0.0132 µM (active); in assay [9] it was 0.054 µM (active); in assay [10], 3.76 µM (active). Moreover, the IC50 in assay [11] is 0.112 µM (active); in assay [12], > 10 µM (inactive); in [13], 0.312 µM (active).

As for `COc1ccc(C2CCN(c3ccnc4ccccc34)C2)cc1OC` (stereo unspecified), the IC50 in assay [14] was 2 µM (active).

In the case of `Clc1ccc(-c2nnc(SCc3cn(-c4ccccc4)nn3)o2)cc1`, the 90% effect concentration (IC90) in assay [15] and in [17] was 1 µM (active) in each case. Moreover, the AC50 in assay [16] is > 52 µM (inactive).

Take `CCOc1ccc(C)cc1S(=O)(=O)NCc1ccncc1`: the AC50 is > 70 µM (inactive) in assay [18]; > 70 µM (inactive) in [19]; 4.69 µM (active) and 8.19 µM (active) in [20].

On to `COc1cccc(CNC(=O)c2ccc3c(c2)N(C)CCS3)c1OC`, for which the EC50 at Kallikrein-7 is > 69.5 µM (inactive).

Values taken from ChEMBL document CHEMBL1201862, “PubChem BioAssay data set” (2004).
